Source: patent EP0674635B1, “QUINUCLIDINE DERIVATIVES AS SQUALENE SYNTHASE INHIBITORS” (Syngenta Limited, priority 1992, dated 1994)

Tests used:
[1] = system: de novo hepatic cholesterol synthesis; assay: Acute rat cholesterol synthesis assay (de novo hepatic cholesterol synthesis from 14C-acetate); assay type: in vivo; details: for ED50: 14C-acetate
Method: (b) Acute rat cholesterol synthesis assay.
This is an acute in vivo test in the rat to measure de novo hepatic cholesterol synthesis from exogenously administered ^14C-acetate.
Female rats (35 - 55 g) are housed in reverse lighting conditions (red light from 0200h - 1400h) for a period of about 2 weeks prior to test. Animals are allowed free access to chow and drinking water throughout this period. At test, animals should weigh 125 - 150 g. Test compounds may be administered by oral gavage, dissolved or suspended in 0.5% polysorbate, or by ip or iv dosing. Control animals receive vehicle alone. After 1 hour the rats are injected ip with 25µCi [2-^14C]-acetate (NEN DUPONT. specific activity, 45-60mCi/mmol NEC-085H, or AMERSHAM specific activity, 50-60mCi/mmol CFA 14) in a volume of 0.25 ml saline (100µCi/ml). After a further hour, rats are terminally anaesthetised with halothane and a blood sample obtained from the abdominal vena cava.
1ml of plasma is lyophilised and then saponified in 2ml ethanolic KOH (1 part 33% KOH, 9 parts ethanol) at 75°C for 2 hours. After addition of an equal quantity of water, non-saponifiable lipids are extracted with two 5ml volumes of hexane. The hexane extracts are evaporated to dryness and the residues dissolved in ethanol to determine cholesterol specific radioactivity. ED50 values can be determined in the standard way.

[2] = biological target: T1, squalene synthase (Rattus norvegicus, UniProt Q02769); assay: Inhibition of squalene synthase (formation of squalene from tritiated farnesyl pyrophosphate, rat liver microsomal protein); assay type: biochemical; details: at a concentration of 2.5µM, substrate 20µM
T1 construct: from tissue; host or cells: rat liver microsomes
T1 sequence (Q02769 1-416): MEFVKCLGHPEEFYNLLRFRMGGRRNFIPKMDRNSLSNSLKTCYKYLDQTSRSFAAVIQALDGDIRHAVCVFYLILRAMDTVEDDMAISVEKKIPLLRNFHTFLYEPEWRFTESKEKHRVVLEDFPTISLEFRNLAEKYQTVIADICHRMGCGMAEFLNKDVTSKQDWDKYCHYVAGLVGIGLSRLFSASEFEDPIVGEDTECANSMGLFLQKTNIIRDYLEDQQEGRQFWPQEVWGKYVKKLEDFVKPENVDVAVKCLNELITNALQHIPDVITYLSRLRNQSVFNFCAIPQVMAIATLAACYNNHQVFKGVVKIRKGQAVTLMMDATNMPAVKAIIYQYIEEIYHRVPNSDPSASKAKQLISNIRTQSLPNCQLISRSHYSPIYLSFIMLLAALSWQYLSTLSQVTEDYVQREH
Method: (a) Inhibition of Squalene synthase
In this test, the ability of a compound to prevent the formation of squalene from a radioactive substrate (tritiated farnesyl pyrophosphate) is assessed.
The test compound is incubated at a concentration of 25 micromolar in 200µl of a buffered solution containing potassium phosphate (50mM), MgCl2 (4.95mM), KF (9.9mM), NADPH (0.9mM) and rat liver microsomal protein (20µg). Rat liver microsomes are prepared by the method described in published European Patent Application No. 324,421 and stored in liquid nitrogen prior to assay. Assay vials are kept at 37°C throughout the incubation.
The reaction is started with the addition of the substrate (1-(^3H]-farnesyl pyrophosphate), final concentration 20µM, and stopped after 15 minutes reaction time with the addition of 50µl of 4% KOH. The reaction products are separated from unreacted substrate after application to a C-18 octadecyl 1ccBond column (Analytichem Int product No. 617101). An aqueous fraction is eluted with 250µl of 0.1M KOH. Squalene is then eluted with 1.0 ml 10% ethylacetate in hexane and radioactivity determined. The difference in radioactivity in the presence and absence of the test compound is used to determine the level of inhibition. […] The IC50 can then be determined from a plot of percentage inhibition against concentration of test compound.

SMILES	ED50 [1] [mg/kg]	inhibition at 2.5 µM [2] [%]	reduction in the rate of cholesterol biosynthesis ([1]; dose not given) [%]
OC1(c2ccc(-c3cnc4ccccc4c3)cc2)CN2CCC1CC2 (centres unmarked) [Example 12, 3-[4-quinol-3-ylphenyl]quinculidin-3-ol]	~3.8		
OC1(c2ccc(-c3nc4ccccc4o3)cc2)CN2CCC1CC2 (centres unmarked) [Example 6, 3-[4-(benzoxazol-2-yl)phenyl]quinuclidin-3-ol]	~4.5		
OC1(c2ccc(-c3ccc4ccccc4n3)cc2)CN2CCC1CC2 (centres unmarked) [Example 3, 3-[4-(2-quinolyl)phenyl)quinuclidin-3-ol]	~14	~71	74
